In ChEMBL document CHEMBL1201862, “PubChem BioAssay data set” (2004):
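All cell lines were grown in 96-well plates and treated with compound for 48 hours. GI50: concentration for 50% inhibition of growth.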 The source made the active and inactive calls. Rule as the data show it: active = GI50 up to about 1.1 µM and inactive = higher.

Tests used:
Experiment in all cases: NCI-60 cell line screen, 48 h
NCI-H226 = tested on: NCI-H226
UO-31 = tested on: UO-31
HOP-92 = tested on: HOP-92
DU-145 = tested on: DU-145
SR = tested on: SR
HCC 2998 = tested on: HCC 2998
A549 = tested on: A549
HL-60 = tested on: HL-60
MDA-MB-231 = tested on: MDA-MB-231
MCF7 = tested on: MCF7
UACC-257 = tested on: UACC-257
TK-10 = tested on: TK-10
HCT-15 = tested on: HCT-15
CAKI-1 = tested on: CAKI-1
CCRF-CEM = tested on: CCRF-CEM
OVCAR-5 = tested on: OVCAR-5
RXF 393 = tested on: RXF 393
BT-549 = tested on: BT-549
Malme-3M = tested on: Malme-3M

Row | Structure (SMILES) | GI50 (NCI-H226) | GI50 (UO-31) | GI50 (HOP-92) | GI50 (DU-145) | GI50 (SR) | GI50 (HCC 2998) | GI50 (A549) | GI50 (HL-60) | GI50 (MDA-MB-231) | GI50 (MCF7) | GI50 (UACC-257) | GI50 (TK-10) | GI50 (HCT-15) [µM] | GI50 (CAKI-1) | GI50 (CCRF-CEM) | GI50 (OVCAR-5) | GI50 (RXF 393) | GI50 (BT-549) | GI50 (Malme-3M)
1 | O=C1N(CN2CCOCC2)CN(CN2CCOCC2)C(=O)N1Cc1ccc(CN2C(=O)N(CN3CCOCC3)CN(CN3CCOCC3)C2=O)cc1 | > 100 µM (inactive) | 44.4 µM (inactive) | 52 µM (inactive) | 45.8 µM (inactive) | 46.9 µM (inactive) | > 100 µM (inactive) | 40.2 µM (inactive) | 60.1 µM (inactive) | 57.9 µM (inactive) | 38.9 µM (inactive) | 52.2 µM (inactive) | > 100 µM (inactive) | 31.2 | 38.3 µM (inactive) | 62.1 µM (inactive) | > 100 µM (inactive) |  |  | 
2 | CC(=O)O[C@H]1C(=O)[C@@]2(C)[C@H]([C@H](OC(=O)c3ccccc3)[C@]3(O)C[C@H](OC(=O)[C@H](O)[C@@H](NC(=O)CC(C)(C)C)c4ccccc4)C(C)=C1C3(C)C)C1(OC(C)=O)CO[C@@H]1C[C@@H]2O (stereo partly drawn) | 0.0194 µM (active) | 3.96 µM (inactive) | 0.0106 µM (active) | 0.00836 µM (active) |  | 0.00231 µM (active) | 0.00371 µM (active) | 0.00105 µM (active) | > 10 µM (inactive) | < 0.001 µM (active) | 0.00684 µM (active) | 0.047 µM (active) | 0.223 | 0.128 µM (active) | 0.00171 µM (active) |  | 0.00796 µM (active) | 0.0968 µM (active) | 
3 | Cc1cc(C)c(S(=O)(=O)N2CCN(S(=O)(=O)c3c(C)cc(C)cc3C)OCCCCCO2)c(C)c1 | > 100 µM (inactive) | > 100 µM (inactive) | 62.1 µM (inactive) | > 100 µM (inactive) |  |  | > 100 µM (inactive) | > 100 µM (inactive) |  | > 100 µM (inactive) | > 100 µM (inactive) | > 100 µM (inactive) | > 100 | > 100 µM (inactive) | > 100 µM (inactive) | > 100 µM (inactive) |  | > 100 µM (inactive) | > 100 µM (inactive)
4 | CN(C)c1nncc2[nH]nnc12 | > 100 µM (inactive) | > 100 µM (inactive) | > 100 µM (inactive) |  | > 100 µM (inactive) | > 100 µM (inactive) | > 100 µM (inactive) | > 100 µM (inactive) |  | > 100 µM (inactive) | > 100 µM (inactive) | > 100 µM (inactive) | > 100 | > 100 µM (inactive) | > 100 µM (inactive) | > 100 µM (inactive) |  | > 100 µM (inactive) | 92.3 µM (inactive)
5 | CCCCCCCCCCCCCCC(C)CCC(=O)O (stereo not drawn) | > 100 µM (inactive) |  | 62.5 µM (inactive) |  |  |  | > 100 µM (inactive) |  |  |  | > 100 µM (inactive) | > 100 µM (inactive) |  | > 100 µM (inactive) |  | > 100 µM (inactive) | > 100 µM (inactive) |  | > 100 µM (inactive)
6 | NC1C/C(=N\O)c2c(Cl)sc(Cl)c21 (stereo not drawn) | 21.9 µM (inactive) | 17.4 µM (inactive) | 22.9 µM (inactive) | 15.1 µM (inactive) | 20.1 µM (inactive) | 92.7 µM (inactive) | 29.3 µM (inactive) | 21.4 µM (inactive) |  | 11 µM (inactive) | 17.1 µM (inactive) | 17.5 µM (inactive) | 15.6 | 18 µM (inactive) | 3.17 µM (inactive) | 21.7 µM (inactive) |  | 18.5 µM (inactive) | 19.5 µM (inactive)
7 | O=C1/C(=C/C=C/c2ccccc2)N=C(c2ccccc2)N1C1Nc2cc3c(cc2S1)NC(N1C(=O)/C(=C/C=C/c2ccccc2)N=C1c1ccccc1)S3 (stereo not drawn) | > 100 µM (inactive) | 28.1 µM (inactive) | 22.2 µM (inactive) | 38.8 µM (inactive) | < 0.01 µM (active) | 11.4 µM (inactive) |  | 29.1 µM (inactive) | 31.6 µM (inactive) | 29.9 µM (inactive) | > 100 µM (inactive) | 86.7 µM (inactive) | 40.9 | 73.6 µM (inactive) | 43.9 µM (inactive) | > 100 µM (inactive) | 33.8 µM (inactive) |  | 
8 | O=[N+]([O-])c1ccc(NN/N=N/c2ccc(-c3nc4ccccc4s3)cc2)c([N+](=O)[O-])c1 | 29.5 µM (inactive) | 19.1 µM (inactive) | 21 µM (inactive) | 30.7 µM (inactive) | 26.8 µM (inactive) | 17.8 µM (inactive) | 27.7 µM (inactive) | 16 µM (inactive) | 22.3 µM (inactive) |  | 18.9 µM (inactive) | 36.9 µM (inactive) | 22.7 | 26.5 µM (inactive) | 28.6 µM (inactive) | 23.8 µM (inactive) | 18.7 µM (inactive) | 23.8 µM (inactive) | 28.2 µM (inactive)
9 | Oc1c(Cl)c(Cl)c(O)c(-c2cnc(-c3ncc(-c4c(O)c(Cl)c(Cl)c(O)c4Cl)s3)s2)c1Cl | 3.96 µM (inactive) | 21.1 µM (inactive) | 25 µM (inactive) | 49.8 µM (inactive) | 35.6 µM (inactive) | 36.6 µM (inactive) | 29.6 µM (inactive) | 33.3 µM (inactive) | 20.7 µM (inactive) | 18.2 µM (inactive) | 29 µM (inactive) | 26.7 µM (inactive) | 13.6 | 20.9 µM (inactive) | 8.53 µM (inactive) | 15.5 µM (inactive) | 18.9 µM (inactive) |  | 29.4 µM (inactive)
10 | C/C(=N\c1cccc(Cl)c1)c1ccncc1 | > 100 µM (inactive) | > 100 µM (inactive) | > 100 µM (inactive) | > 100 µM (inactive) |  | > 100 µM (inactive) | > 100 µM (inactive) |  | > 100 µM (inactive) | > 100 µM (inactive) | > 10 µM (inactive) | > 100 µM (inactive) | > 100 | > 100 µM (inactive) | > 100 µM (inactive) | > 100 µM (inactive) | > 100 µM (inactive) | > 100 µM (inactive) | > 100 µM (inactive)
11 | Nn1c(Nc2ccc(S(N)(=O)=O)cc2)nnc(/C=C/c2c(O)ccc3ccccc23)c1=O |  | 22.9 µM (inactive) |  | 26.3 µM (inactive) | 8.77 µM (inactive) | 18.8 µM (inactive) | 28.1 µM (inactive) | 7.74 µM (inactive) |  | 17.5 µM (inactive) | 27.5 µM (inactive) |  | 12.8 | 22.9 µM (inactive) | 4.03 µM (inactive) | 21.6 µM (inactive) |  | 14.9 µM (inactive) | 15.7 µM (inactive)
12 | CC(C)(C)[Si](C)(C)OCC1OC(n2cnc3c(=O)[nH]cnc32)CC1O (stereo not drawn) | > 100 µM (inactive) | > 100 µM (inactive) | > 100 µM (inactive) | > 100 µM (inactive) | > 100 µM (inactive) | > 100 µM (inactive) | > 100 µM (inactive) | > 100 µM (inactive) | > 100 µM (inactive) | > 100 µM (inactive) | > 100 µM (inactive) | > 100 µM (inactive) | > 100 | > 100 µM (inactive) | > 100 µM (inactive) | > 100 µM (inactive) | > 100 µM (inactive) |  | > 100 µM (inactive)
13 | O=c1c2ccccc2c(=O)c2c1cc(Cl)c1[nH]c3c([nH]c12)c(Cl)cc1c(=O)c2ccccc2c(=O)c13 | > 100 µM (inactive) | > 100 µM (inactive) |  |  |  | > 100 µM (inactive) | > 100 µM (inactive) | > 100 µM (inactive) |  |  | > 100 µM (inactive) | > 100 µM (inactive) | > 100 | > 100 µM (inactive) | > 100 µM (inactive) | > 100 µM (inactive) | > 100 µM (inactive) |  | > 100 µM (inactive)
14 | Clc1cc(Cl)c2n[se]nc2c1 |  | > 100 µM (inactive) |  |  | > 100 µM (inactive) | > 100 µM (inactive) | > 100 µM (inactive) | > 100 µM (inactive) |  |  | > 100 µM (inactive) | 38.3 µM (inactive) | > 100 | > 100 µM (inactive) | > 100 µM (inactive) | > 100 µM (inactive) | > 100 µM (inactive) |  | > 100 µM (inactive)
15 | COc1ccc(OC)c(CNc2ccc(O)c(C(=O)NCCc3ccc(F)cc3)c2)c1 |  | 7.18 µM (inactive) |  | 12.8 µM (inactive) | 3.44 µM (inactive) | 3.58 µM (inactive) | 20.7 µM (inactive) |  | 7 µM (inactive) | 10.8 µM (inactive) | 13.5 µM (inactive) | 28.9 µM (inactive) | 12.6 | 21.5 µM (inactive) | 7.23 µM (inactive) | 22.4 µM (inactive) |  | 17.1 µM (inactive) | 
16 | COc1cc(NC(C)=O)ccc1C(=O)NN1C(=O)/C(=C/c2ccco2)N=C1c1ccccc1 |  | > 50 µM (inactive) | > 50 µM (inactive) | > 50 µM (inactive) | 22.5 µM (inactive) |  | > 50 µM (inactive) | 13.6 µM (inactive) |  | 34.3 µM (inactive) |  |  | > 50 | > 50 µM (inactive) | 12.5 µM (inactive) | > 50 µM (inactive) | > 50 µM (inactive) | > 50 µM (inactive) | > 50 µM (inactive)
17 | O=C(c1ccccc1)c1ccc2c(c1)nc1n2C(c2c(F)cccc2F)SC1 (stereo not drawn) | 34.8 µM (inactive) | 11.6 µM (inactive) | 40.5 µM (inactive) | 40.5 µM (inactive) |  | 36.5 µM (inactive) | 22 µM (inactive) |  | 41.9 µM (inactive) | 26.5 µM (inactive) | 29.6 µM (inactive) | 39.2 µM (inactive) | 36.6 | 21.1 µM (inactive) |  | 25.8 µM (inactive) | 29 µM (inactive) | 26.7 µM (inactive) | 31.2 µM (inactive)
18 | CCCNc1ncnc2c1cnn2C | > 100 µM (inactive) |  | > 100 µM (inactive) |  | > 100 µM (inactive) | > 100 µM (inactive) | > 100 µM (inactive) | > 100 µM (inactive) |  |  | > 100 µM (inactive) | > 100 µM (inactive) | > 100 | > 100 µM (inactive) | > 100 µM (inactive) | > 100 µM (inactive) |  |  | > 100 µM (inactive)
